Results reported in ChEMBL document CHEMBL3885861, “Open TG-GATES”.

Species: Rattus norvegicus
Experiment: Open TG-GATES - Regimen: Single
Format: toxicity, organism-based, Sprague-Dawley
Parameters: regimen Single, gender Male, age 6 weeks
Settings: in vivo, po, route gavage; for TG / TP / gamma-GTP / ALT / AST / CRE / Ca / Cl / DBIL / GLC / K / LDH / Na / PL / RALB / TBIL / TC / ALP: tissue Plasma; for APTT / Bas / Eos / Fbg / Hb / Ht / Lym / MCHC / MCV / Mono / PT / Plat / RBC / WBC: tissue Blood; for KIDNEY_L / KIDNEY_R / KIDNEY_TOTAL: tissue Kidney; for LIVER: tissue Liver
[1] = 0 mg/kg, 24 h, dose level Control

`COc1ccc([C@@H]2Sc3ccccc3N(CCN(C)C)C(=O)[C@@H]2OC(C)=O)cc1` [DILTIAZEM] gave a TG [1] of 84.2 mg/dL, a TP [1] of 5.4 g/dL and a gamma-GTP [1] of 1 IU/L. It also gave a TERMINAL_BW (80 mg/kg, 3 h, dose level Low) of 186.4 g, an APTT (80 mg/kg, 3 h, dose level Low) of 17.7 s and a Bas (80 mg/kg, 3 h, dose level Low) of 0.4%. For the same compound, the Eos (80 mg/kg, 3 h, dose level Low) was 0.2%, the Fbg (80 mg/kg, 3 h, dose level Low) was 282.2 mg/dL and the Hb (80 mg/kg, 3 h, dose level Low) was 12.8 g/dL. For the same compound, the Ht (80 mg/kg, 3 h, dose level Low) was 40%, the Lym (80 mg/kg, 3 h, dose level Low) was 70.8% and the MCHC (80 mg/kg, 3 h, dose level Low) was 32.1%. The MCV (80 mg/kg, 3 h, dose level Low) was 66.5 fL, the Mono (80 mg/kg, 3 h, dose level Low) was 3.4% and the PT (80 mg/kg, 3 h, dose level Low) was 14.7 s. It also gave a Plat (80 mg/kg, 3 h, dose level Low) of 124.6 x10_4/uL, an RBC (80 mg/kg, 3 h, dose level Low) of 601.8 x10_4/ul and a WBC (80 mg/kg, 3 h, dose level Low) of 115.4 x10_2/uL. For the same compound, the KIDNEY_L (80 mg/kg, 3 h, dose level Low) was 0.9 g, the KIDNEY_R (80 mg/kg, 3 h, dose level Low) was 0.8 g and the KIDNEY_TOTAL (80 mg/kg, 3 h, dose level Low) was 1.7 g. It also gave an LIVER (80 mg/kg, 3 h, dose level Low) of 8.4 g, an ALT (80 mg/kg, 3 h, dose level Low) of 50.8 IU/L and an AST (80 mg/kg, 3 h, dose level Low) of 85.6 IU/L. The CRE (80 mg/kg, 3 h, dose level Low) was 0.2 mg/dL, the Ca (80 mg/kg, 3 h, dose level Low) was 10.8 mg/dL and the Cl (80 mg/kg, 3 h, dose level Low) was 106.6 meq/L. For the same compound, the DBIL (80 mg/kg, 3 h, dose level Low) was 0.014 mg/dL, the GLC (80 mg/kg, 3 h, dose level Low) was 183.4 mg/dL and the K (80 mg/kg, 3 h, dose level Low) was 4.5 meq/L. For the same compound, the LDH (80 mg/kg, 3 h, dose level Low) was 74.8 IU/L, the Na (80 mg/kg, 3 h, dose level Low) was 142.2 meq/L and the PL (80 mg/kg, 3 h, dose level Low) was 134.8 mg/dL. For the same compound, the RALB (80 mg/kg, 3 h, dose level Low) was 2.5 g/dL, the TBIL (80 mg/kg, 3 h, dose level Low) was 0.032 mg/dL and the TC (80 mg/kg, 3 h, dose level Low) was 71.8 mg/dL. The TG (80 mg/kg, 3 h, dose level Low) was 60.2 mg/dL, the TP (80 mg/kg, 3 h, dose level Low) was 5.1 g/dL and the gamma-GTP (80 mg/kg, 3 h, dose level Low) was 1.2 IU/L. For the same compound, the TERMINAL_BW (80 mg/kg, 6 h, dose level Low) was 182.6 g, the APTT (80 mg/kg, 6 h, dose level Low) was 17 s and the Bas (80 mg/kg, 6 h, dose level Low) was 0%. For the same compound, the Eos (80 mg/kg, 6 h, dose level Low) was 0.8%, the Fbg (80 mg/kg, 6 h, dose level Low) was 314.8 mg/dL and the Ht (80 mg/kg, 6 h, dose level Low) was 40.5%. For the same compound, the Lym (80 mg/kg, 6 h, dose level Low) was 71.2%, the MCHC (80 mg/kg, 6 h, dose level Low) was 32.4% and the MCV (80 mg/kg, 6 h, dose level Low) was 67 fL. The Mono (80 mg/kg, 6 h, dose level Low) was 4.2%, the PT (80 mg/kg, 6 h, dose level Low) was 14.7 s and the Plat (80 mg/kg, 6 h, dose level Low) was 131.5 x10_4/uL. The RBC (80 mg/kg, 6 h, dose level Low) was 606 x10_4/ul, the WBC (80 mg/kg, 6 h, dose level Low) was 91.6 x10_2/uL and the KIDNEY_L (80 mg/kg, 6 h, dose level Low) was 0.8 g. For the same compound, the KIDNEY_R (80 mg/kg, 6 h, dose level Low) was 0.8 g, the KIDNEY_TOTAL (80 mg/kg, 6 h, dose level Low) was 1.6 g and the LIVER (80 mg/kg, 6 h, dose level Low) was 7.9 g. It also gave an ALT (80 mg/kg, 6 h, dose level Low) of 42.4 IU/L, an AST (80 mg/kg, 6 h, dose level Low) of 72.8 IU/L and a CRE (80 mg/kg, 6 h, dose level Low) of 0.2 mg/dL. For the same compound, the Ca (80 mg/kg, 6 h, dose level Low) was 11.1 mg/dL, the Cl (80 mg/kg, 6 h, dose level Low) was 106.8 meq/L and the DBIL (80 mg/kg, 6 h, dose level Low) was 0.014 mg/dL. It also gave a GLC (80 mg/kg, 6 h, dose level Low) of 176.8 mg/dL, a K (80 mg/kg, 6 h, dose level Low) of 4.1 meq/L and an LDH (80 mg/kg, 6 h, dose level Low) of 54 IU/L. It also gave a Na (80 mg/kg, 6 h, dose level Low) of 143.8 meq/L, a PL (80 mg/kg, 6 h, dose level Low) of 137.4 mg/dL and an RALB (80 mg/kg, 6 h, dose level Low) of 2.5 g/dL. The TBIL (80 mg/kg, 6 h, dose level Low) was 0.034 mg/dL, the TC (80 mg/kg, 6 h, dose level Low) was 79 mg/dL and the TG (80 mg/kg, 6 h, dose level Low) was 33.4 mg/dL. It also gave a TP (80 mg/kg, 6 h, dose level Low) of 5.3 g/dL, a gamma-GTP (80 mg/kg, 6 h, dose level Low) of 1 IU/L and a TERMINAL_BW (80 mg/kg, 9 h, dose level Low) of 181.8 g. For the same compound, the Bas (80 mg/kg, 9 h, dose level Low) was 0%, the Eos (80 mg/kg, 9 h, dose level Low) was 0.8% and the Fbg (80 mg/kg, 9 h, dose level Low) was 300.8 mg/dL. It also gave a Hb (80 mg/kg, 9 h, dose level Low) of 12.9 g/dL, a Ht (80 mg/kg, 9 h, dose level Low) of 40.2% and a Lym (80 mg/kg, 9 h, dose level Low) of 79.4%. The MCHC (80 mg/kg, 9 h, dose level Low) was 32.1%, the MCV (80 mg/kg, 9 h, dose level Low) was 66.7 fL and the Mono (80 mg/kg, 9 h, dose level Low) was 3%. It also gave a PT (80 mg/kg, 9 h, dose level Low) of 15.2 s, a Plat (80 mg/kg, 9 h, dose level Low) of 116.7 x10_4/uL and an RBC (80 mg/kg, 9 h, dose level Low) of 603.2 x10_4/ul. The WBC (80 mg/kg, 9 h, dose level Low) was 69.7 x10_2/uL, the KIDNEY_L (80 mg/kg, 9 h, dose level Low) was 0.9 g and the KIDNEY_R (80 mg/kg, 9 h, dose level Low) was 0.9 g. The KIDNEY_TOTAL (80 mg/kg, 9 h, dose level Low) was 1.7 g, the LIVER (80 mg/kg, 9 h, dose level Low) was 7.3 g and the ALP (80 mg/kg, 9 h, dose level Low) was 1382 IU/L. It also gave an ALT (80 mg/kg, 9 h, dose level Low) of 44 IU/L, an AST (80 mg/kg, 9 h, dose level Low) of 74.8 IU/L and a CRE (80 mg/kg, 9 h, dose level Low) of 0.1 mg/dL. For the same compound, the Ca (80 mg/kg, 9 h, dose level Low) was 10.7 mg/dL, the Cl (80 mg/kg, 9 h, dose level Low) was 105.8 meq/L and the DBIL (80 mg/kg, 9 h, dose level Low) was 0.016 mg/dL. For the same compound, the GLC (80 mg/kg, 9 h, dose level Low) was 176.8 mg/dL, the K (80 mg/kg, 9 h, dose level Low) was 4.1 meq/L and the LDH (80 mg/kg, 9 h, dose level Low) was 59.6 IU/L. For the same compound, the Na (80 mg/kg, 9 h, dose level Low) was 142 meq/L, the PL (80 mg/kg, 9 h, dose level Low) was 129.4 mg/dL and the RALB (80 mg/kg, 9 h, dose level Low) was 2.5 g/dL. It also gave a TBIL (80 mg/kg, 9 h, dose level Low) of 0.032 mg/dL, a TC (80 mg/kg, 9 h, dose level Low) of 69 mg/dL and a TG (80 mg/kg, 9 h, dose level Low) of 55.8 mg/dL. It also gave a TP (80 mg/kg, 9 h, dose level Low) of 5.1 g/dL, a gamma-GTP (80 mg/kg, 9 h, dose level Low) of 1 IU/L and a TERMINAL_BW (80 mg/kg, 24 h, dose level Low) of 195.1 g. For the same compound, the Bas (80 mg/kg, 24 h, dose level Low) was 0%, the Eos (80 mg/kg, 24 h, dose level Low) was 1% and the Fbg (80 mg/kg, 24 h, dose level Low) was 257 mg/dL. For the same compound, the Hb (80 mg/kg, 24 h, dose level Low) was 13.3 g/dL, the Ht (80 mg/kg, 24 h, dose level Low) was 40.6% and the Lym (80 mg/kg, 24 h, dose level Low) was 75%. It also gave an MCHC (80 mg/kg, 24 h, dose level Low) of 32.8%, an MCV (80 mg/kg, 24 h, dose level Low) of 67 fL and a Mono (80 mg/kg, 24 h, dose level Low) of 3.2%. It also gave a PT (80 mg/kg, 24 h, dose level Low) of 14.5 s, a Plat (80 mg/kg, 24 h, dose level Low) of 121.8 x10_4/uL and an RBC (80 mg/kg, 24 h, dose level Low) of 606 x10_4/ul. The WBC (80 mg/kg, 24 h, dose level Low) was 83.3 x10_2/uL, the KIDNEY_L (80 mg/kg, 24 h, dose level Low) was 0.9 g and the KIDNEY_R (80 mg/kg, 24 h, dose level Low) was 0.9 g. The KIDNEY_TOTAL (80 mg/kg, 24 h, dose level Low) was 1.7 g, the LIVER (80 mg/kg, 24 h, dose level Low) was 9.3 g and the ALP (80 mg/kg, 24 h, dose level Low) was 1732.2 IU/L. For the same compound, the ALT (80 mg/kg, 24 h, dose level Low) was 49 IU/L, the AST (80 mg/kg, 24 h, dose level Low) was 77.4 IU/L and the CRE (80 mg/kg, 24 h, dose level Low) was 0.2 mg/dL. For the same compound, the Ca (80 mg/kg, 24 h, dose level Low) was 11.2 mg/dL, the Cl (80 mg/kg, 24 h, dose level Low) was 106.8 meq/L and the DBIL (80 mg/kg, 24 h, dose level Low) was 0.016 mg/dL. For the same compound, the GLC (80 mg/kg, 24 h, dose level Low) was 187.4 mg/dL, the K (80 mg/kg, 24 h, dose level Low) was 4.3 meq/L and the LDH (80 mg/kg, 24 h, dose level Low) was 82 IU/L. For the same compound, the Na (80 mg/kg, 24 h, dose level Low) was 144.2 meq/L, the PL (80 mg/kg, 24 h, dose level Low) was 146.4 mg/dL and the RALB (80 mg/kg, 24 h, dose level Low) was 2.6 g/dL. The TBIL (80 mg/kg, 24 h, dose level Low) was 0.032 mg/dL.
